The nature of data set [1]: in vitro. Particulars: mouse, microsomes.
The test system of data set [2] is MEC1 CLL cell line. Briefly: alamarBlue assay, in vitro antileukaemic activity against MEC1 CLL cell line. The data set is classed as cell-based. Particulars: MEC1 cell line, alamarBlue assay, library screen; read-out: EC50 ave. (In general: Resazurin is reduced to fluorescent resorufin, in cell work by metabolically active cells.)
Data set [3] concerns MEC1 CLL cell line. Briefly: cells. Also noted: alamarBlue (resazurin reduction) cytotoxicity assay in MEC1 CLL cells, n = 5. Particulars: Homo sapiens, read-out: alamarBlue EC50 (uM) average n=5. As to the method: Comparison of the activity of 5f with 1 (PTL) and 2a (DMAPT) Biological efforts at University of Birmingham Tissue culture, MEC1 cells were obtained from the American Type Culture Collection (Manassas, VA 20110 USA) and were cultured in RPMI 1640 medium (Sigma-Aldrich, Irvine, UK) with 10% fetal bovine serum (Sigma-Aldrich). The alamarBlue® cytotoxicity assay was conducted by seeding MEC1 cells in triplicate at density of 25000 cells/well in a 96 well plate, final volume of 200 μL. Following treatment with test compound, viability was determined by measuring the reduction of resazurin. Resazurin solution was added to each well at a final concentration of 50 μg/mL and incubated for 3 hours at 37 °C with 5% CO2. Reduction of resazurin was determined by measuring […] at 590 nm using a PheraSTAR FS plate reader (BMG Labtech). Cell viability was calculated as a fraction of the untreated cells after subtracting background fluorescence of resazurin in media only. Data is presented as the mean of five independent experiments and significance was determined by Student’s t-test.

pEC50: −log10 of the molar value.

A word on the microsomal CLint: it is a measure of how fast metabolising enzymes remove a compound, apart from limits set by blood flow. Lower therefore signals greater metabolic stability. Usually pEC50 stands for the EC50 on a negative log10 scale, so that one unit is a factor of ten. On to `C/C1=C\CC[C@@]2(C)O[C@@H]2[C@H]2OC(=O)[C@@H](CN3CCC(O)(c4ccccc4)CC3)[C@@H]2CC1` [Compound 5e], for which the microsomal CLint in data set [1] was > 100 µL/min/mg. In addition, in data set [2], the pEC50 was > 4.82. By EC50 is commonly meant the concentration that produces a half-maximal response. On to `C/C1=C\CC[C@@]2(C)O[C@@H]2[C@H]2OC(=O)[C@@H](CN(C)C)[C@@H]2CC1` [DMAPT, dimethyl amino-PTL], for which, in data set [3], the half-maximal effective concentration (EC50) worked out at 5.3 µM.
